Here are results for 4 compounds from patent US6727401B1, “Pressure sensitive adhesive matrix patch for the treatment of onychomycosis” (Watson Pharmaceuticals, Inc., priority 1998, dated 2004).

Series [1] is described as follows: In vitro human cadaver nail flux study, modified Franz cells, matrix patch. It counts as in vitro ADME. How it is done: The cumulative amount of drug permeated per unit area at any time t(Qt, μg/cm^2) was determined as follows: [formula]
where Cn is the concentration (μg/ml) of the drug in the receiver sample for the corresponding sample time, V is the volume of fluid in the receiver chamber (˜6.3 cm^3), and A is the diffusion area of the cell (0.64 cm^2).
(§1) In vitro human cadaver nail flux studies were conducted using modified Franz non-jacketed permeation cells. The temperature of the nail surface was maintained at 32° C. by placing the cells in a circulating water bath positioned over a stirring module. Human finger nail or toe nail was stored under frozen conditions in 0.02% (w/v) sodium azide solution. Nails that were greater than 1 cm^2 in area were used for the flux studies. Nails with dorsal side facing the donor compartment were sandwiched between two layers of a closed cell polyethylene foam film. Annular ring of 2.38 cm outer diameter and 0.95 cm inner diameter was cut from the backing film. The area of the donut hole (0.97 cm^2) is large enough to provide complete contact with the receiver media. The purpose of the foam backing film was to prevent any leakage of receiver medium from the cell assembly. The nails were allowed to hydrate at 32° C. overnight with 0.02% (w/v) sodium azide solution in the receiver compartment. The following morning, 0.71 cm^2 circular matrix patches were laminated onto the dorsal side of the nail. Each nail matrix sandwich was then loaded between the donor and receiver compartments of a diffusion cell, with the ventral side of nail facing the receiver compartment, and clamped in place.

Series [2] can be described thus: Amount of drug retained in the nail after matrix patch application. Format: in vitro ADME. The note with it: human, 48 hours. How it is done:
as §1
The remaining portion of nail was also dried, weighed, extracted in dimethyl sulfoxide and analyzed for drug content.

Series [3] is described as follows: Amount of drug retained in the skin after matrix patch application. The note with it: patch at 24 hours versus day 1 after oral administration.
The nature of series [4]: In vitro human cadaver skin flux study, modified Franz cells. Format: in vitro ADME. As to the method: In vitro human cadaver skin flux studies were conducted using modified Franz non-jacketed permeation cells. The temperature of the skin surface was maintained at 32° C. by placing the cells in a circulating water bath positioned over a stirring module. The epidermal membrane was separated from the dermatomed human cadaver skin by the heat-separation method of Kligman and Christopher (Arch. Dermatol. 88:702 (1963)) involving the exposure of the full thickness skin to 60° C. heat for 60 seconds, after which time the stratum corneum and the epidermis (epidermal membrane) were gently peeled off the dermis.
For a matrix skin flux study, the heat separated human epidermal membrane was cut into rectangular strips. The matrix was cut into 0.71 cm^2 circular discs. […] At predetermined sampling intervals, the entire contents of the receiver compartment were collected for drug quantitation and the receiver compartment was filled with fresh receiver solution, taking care to eliminate any air bubbles at the skin/solution interface.
For the topical gel study, included for illustration purposes, a thin film of gel approximately 10 μl/cm^2, was applied to the stratum-corneum surface of a hydrated piece of human cadaver skin. […] At predetermined sampling intervals, the entire contents of the receiver compartment were collected for drug quantitation. […]

The conditions of series [5]: long term, high dose systemic therapy, cited from earlier work.

Structures are written as SMILES.

On to `CN(C/C=C/C#CC(C)(C)C)Cc1cccc2ccccc12` [terbinafine], for which, in series [1], the “permeation across the nail” value is “no permeation”. In addition, the “times higher amount of drug in the nail after patch application compared to reported oral administration” value in series [2] is 100-1000 times.
On to `OC(Cn1cncn1)(Cn1cncn1)c1ccc(F)cc1F` [fluconazole], for which the “permeation across the nail” value in series [1] was “no permeation”. Further, the “times higher amount of drug in the nail after patch application compared to reported oral administration” value in series [2] is 1000-2000 times. Moreover, the “times higher amount of fluconazole in the skin compared to oral administration” value in series [3] is on record as 500-600 times.
Turning to `CC(=O)N1CCN(c2ccc(OCC3COC(Cn4ccnc4)(c4ccc(Cl)cc4Cl)O3)cc2)CC1` (centres unmarked) [ketoconazole], the “effect of the presence of an enhancer on skin flux” value in series [4] (enhancer lauramide-DEA, acrylic pressure sensitive adhesive) is given as “doubles the flux”. Further, the reported liver toxicity result in series [5] is listed as “liver toxicity effects”. In series [5] (due to adverse effects on the testes), the “reported effect on testosterone levels in blood” value is listed as “reduces testosterone levels in blood”.
For `Clc1ccccc1C(c1ccccc1)(c1ccccc1)n1ccnc1` [clotrimazole], the “skin flux without an enhancer” value in series [4] was “below the detection limit”. For the same compound, the “permeation across the nail” value in series [1] is given as “no permeation”. For the same compound, the “amount of drug retained in the nail per unit dry weight of nail” value in series [2] is listed as “greater than 500 μg/g”.
